Laboratory results taken from patent publication US12528814B2, “Bifunctional degraders of interleukin-1 receptor-associated kinases and therapeutic use thereof” (NURIX THERAPEUTICS, INC., priority 2020, dated 2026).
Entries after “also recorded” stand apart in the source; their conditions may differ.

Key:
IRAK4 [1] = biological target: T1, IRAK4 (Homo sapiens (Human), UniProt Q9NWZ3); experiment: Western Assay for IRAK4 Degradation; assay type: cell-based; conditions: wild-type Jurkat cells, 4 hrs; approximate
Method: DMSO was stamped into wells A12-H12 at 500 nL/well (NC, Negative Control, maximum signal). […] Following incubation, plates were centrifuged for 5 min at 1600 rpm. […] Cells were lysed overnight at −20° C. Plates were centrifuged for 5 min at 1600 rpm and lysate supernatants were transferred to storage plates. […] Samples were separated by running gels at constant 200 V in NuPAGE MES SDS Running Buffer. Following electrophoresis, proteins were transferred to nitrocellulose membranes using an iBlot Gel Transfer Device and iBlot Gel Transfer Stacks (Thermo cat. no. IB21001 and IB301001) and transfer method PO (20V 1 min, 23V 4 min, 25V 2 min). Membranes were blocked for 1 hr in 5% milk solution (TBS (0.2% Tween-20)).
Following blocking, membranes were incubated with primary antibody overnight at 4° C. with gentle shaking. […] Blots were washed 3× in TBS (0.2% Tween-20), 5-10 min per wash. Following washes, blots were incubated in secondary HRP-conjugated antibody (Promega anti-Rabbit IgG (H+L) HRP, cat. no. W4011), 1:5000 in 5% milk solution (TBS (0.2% Tween-20)), for 1 hr at room temperature with gentle shaking. Blots were washed 3× in TBS (0.2% Tween-20), 5-10 min per wash. Blots were incubated with 1:1 mix of ECL reagents 1 & 2 (Amersham ECL Western Blotting Detection Reagent, cat. no. RPN2106) for 2-3 min at room temperature. Bands were visualized using a Protein Simple imager. […] The data was analyzed using Alpha View software. The densitometric reading for each sample band was normalized to that of the corresponding actin band per lane.

IRAK4 [2] = biological target: T1, IRAK4; experiment: IRAK4 Degradation HiBiT Assay; conditions: for Dmax: Jurkat
Method: Compound dilution series (11-point, 3.16-fold dilutions in DMSO, columns 1-11 and 12-22) at 500× the final required concentrations were prepared in Labcyte LDV 384-well plates (cat. no. LP-0200) using a Labcyte Echo 550 Liquid Handler. The 500× solutions ranged from 5 mM to 0.5 μM (final assay concentration range 10 μM to 0.1 nM). Using the Echo, the 500× solutions were stamped into white, 384-well assay plates (Corning, cat. no. 3570) at 60 nL/well. […] C-terminal HiBiT-tagged Jurkat cells (polyclonal cell line or clone 8D5) were plated at 1×10^6 cells/mL, 30 μL/well (3×10^4 cells/well) in complete RPMI (10% FBS, 1% L-glutamine). Cells were incubated for 4 hrs at 32° C./6% CO2.
Following incubation, 30 uL of complete Nano-Glo HiBiT Lytic Detection Reagent (Nano-Glo HiBiT Lytic Buffer with 1:50 Nano-Glo HiBiT Lytic Substrate and 1:100 LgBiT Protein; Promega cat. no. N3040) was added. Cells were further incubated for 10 min at room temperature (RT). Luminescence units (LU) were read on an EnVision plate reader (Perkin Elmer, 0.1 sec per well). Percent IRAK4 remaining per sample was calculated as follows:
Using Graphpad Prism, % IRAK4 remaining values were plotted as a function of compound concentration.

Aiolos = Aiolos (Homo sapiens (Human), UniProt Q96SW2+Q9UKT9); experiment: Flow Cytometry-Based Assay for Aiolos Degradation; assay type: cell-based; conditions: 24 hours; for DC50: Jurkat cells (Clone E6-1); for Aiolos (CRBN neosubstrate) degradation, in words: Jurkat cells
Method: Flow Cytometry-Based Assay for Aiolos and Ikaros Degradation
Jurkat cells (Clone E6-1) were treated with DMSO or compound for 24 hours and then fixed and permeabilized using a Foxp3/Transcription Factor Fixation/Permeabilization Kit (eBioscience, cat. no. 00-5523). Cells were stained with fluorophore-conjugated antibodies against Ikaros (Biolegend 368414) and Aiolos (Biolegend, cat. no. 371106). An additional set of DMSO-treated cells was stained with fluorophore-conjugated isotype control antibodies (Biolegend, cat. no. 400254 and 400136). Stained cells were run on an Attune N×T Acoustic Focusing Flow Cytometer (Thermo-Fisher, cat. no. A29004), and data was analyzed using FlowJo (v10.5.3) and GraphPad Prism (v7.00) software. Single cells were gated, and the geometric mean fluorescence intensities (MFIs) of Ikaros and Aiolos were calculated. The MFI of the isotype control was calculated for each analyte and used to quantify background staining. Percent Ikaros or Aiolos degradation was calculated for each compound-treated sample using the following equation: % Degradation=[…]

GSPT1 = GSPT1 (Homo sapiens (Human), UniProt P15170+Q96SW2); experiment: Western Assay for GSPT1 Degradation; assay type: cell-based; conditions: wild-type Jurkat cells, 24 hrs
Method: Biological Example 4 Western Assay for IRAK4, IRAK1 and GSPT1 Degradation
DMSO was stamped into wells A12-H12 at 500 nL/well (NC, Negative Control, maximum signal). […] Following incubation, plates were centrifuged for 5 min at 1600 rpm. Media was removed and cell pellets were lysed in 50 μL lysis buffer (RIPA buffer (Fisher, PI89901), cOmplete Mini EDTA-free protease inhibitor (Sigma 11836170001), Protease Inhibitor Cocktail (Sigma, P2714), Phosphatase Inhibitor Cocktail 2 and 3 (Sigma, P5726 and P0044), Benzonase (Sigma, E1014)). Cells were lysed overnight at −20° C. Plates were centrifuged for 5 min at 1600 rpm and lysate supernatants were transferred to storage plates. Protein levels were determined by BCA Assay performed according to manufacturer's protocol (EMD Millipore, cat. no. 71285-3). Samples were combined with (4×) LDS Sample Buffer and (10×) Reducing Agent and H2O to equally load 10 ug protein per lane of a 26-well NuPAGE 4-12% Bis-Tris protein gel (1.0 mm, Thermo cat. no. NP0326). Samples were separated by running gels at constant 200 V in NuPAGE MES SDS Running Buffer. Following electrophoresis, proteins were transferred to nitrocellulose membranes using an iBlot Gel Transfer Device and iBlot Gel Transfer Stacks (Thermo cat. no. IB21001 and IB301001) and transfer method PO (20V 1 min, 23V 4 min, 25V 2 min). Membranes were blocked for 1 hr in 5% milk solution (TBS (0.2% Tween-20)).
Following blocking, membranes were incubated with primary antibody overnight at 4° C. with gentle shaking. The primary antibodies and dilutions used were as follows: IRAK4—abcam ab3200612, 1:500; IRAK1—Cell Signaling Technologies D51G7 #4504, 1:500; GSPT1—Cell Signaling Technologies #14980, 1:500). Blots were washed 3× in TBS (0.2% Tween-20), 5-10 min per wash. Following washes, blots were incubated in secondary HRP-conjugated antibody (Promega anti-Rabbit IgG (H+L) HRP, cat. no. W4011), 1:5000 in 5% milk solution (TBS (0.2% Tween-20)), for 1 hr at room temperature with gentle shaking. Blots were washed 3× in TBS (0.2% Tween-20), 5-10 min per wash. Blots were incubated with 1:1 mix of ECL reagents 1 & 2 (Amersham ECL Western Blotting Detection Reagent, cat. no. RPN2106) for 2-3 min at room temperature. Bands were visualized using a Protein Simple imager. Blots were then re-probed with a combination of anti-actin antibody (Sigma Monoclonal Mouse Anti-3-Actin (clone AC-15), cat. no. A5441) and secondary HRP-conjugated antibody (Promega anti-Mouse IgG (H+L) HRP, cat. no. W4021) and similar steps were taken for incubation, wash, detection and visualization steps as above. The data was analyzed using Alpha View software. The densitometric reading for each sample band was normalized to that of the corresponding actin band per lane.

[3] = read-out: IRAK4 HiBit Dmax, C-terminal HiBiT-tagged Jurkat cells, 4 hrs, Tables 2-3
[4] = read-out: IRAK4 HiBit DC50, C-terminal HiBiT-tagged Jurkat cells, 4 hrs, Tables 2-3
[5] = read-out: Cellular IRAK4 HiBiT: Dmax, Table 4, HiBiT-tagged Jurkat cells, 4 hrs
[6] = read-out: Cellular IRAK4 HiBiT: Dmax, Table 5, multiple runs, HiBiT-tagged Jurkat cells, 4 hrs
[7] = read-out: Cellular IRAK4 HiBiT: DC50, Table 4, HiBiT-tagged Jurkat cells, 4 hrs
[8] = read-out: Cellular IRAK4 HiBiT: DC50, Table 5, multiple runs, HiBiT-tagged Jurkat cells, 4 hrs

Chain of GSPT1 (P15170 whole entry): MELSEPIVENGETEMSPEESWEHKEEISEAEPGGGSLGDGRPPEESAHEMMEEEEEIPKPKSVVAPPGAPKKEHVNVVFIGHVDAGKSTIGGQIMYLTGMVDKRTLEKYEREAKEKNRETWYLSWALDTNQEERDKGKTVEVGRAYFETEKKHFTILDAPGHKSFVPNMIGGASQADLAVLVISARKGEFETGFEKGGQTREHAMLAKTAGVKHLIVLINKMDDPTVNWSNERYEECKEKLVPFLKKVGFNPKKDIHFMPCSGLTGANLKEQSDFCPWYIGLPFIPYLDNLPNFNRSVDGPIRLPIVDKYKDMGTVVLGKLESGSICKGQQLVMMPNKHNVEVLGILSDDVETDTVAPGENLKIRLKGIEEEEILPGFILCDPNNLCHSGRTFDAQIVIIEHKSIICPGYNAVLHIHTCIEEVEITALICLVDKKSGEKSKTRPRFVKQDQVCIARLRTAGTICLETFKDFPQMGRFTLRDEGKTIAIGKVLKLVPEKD
Chain of GSPT1 (Q96SW2 whole entry): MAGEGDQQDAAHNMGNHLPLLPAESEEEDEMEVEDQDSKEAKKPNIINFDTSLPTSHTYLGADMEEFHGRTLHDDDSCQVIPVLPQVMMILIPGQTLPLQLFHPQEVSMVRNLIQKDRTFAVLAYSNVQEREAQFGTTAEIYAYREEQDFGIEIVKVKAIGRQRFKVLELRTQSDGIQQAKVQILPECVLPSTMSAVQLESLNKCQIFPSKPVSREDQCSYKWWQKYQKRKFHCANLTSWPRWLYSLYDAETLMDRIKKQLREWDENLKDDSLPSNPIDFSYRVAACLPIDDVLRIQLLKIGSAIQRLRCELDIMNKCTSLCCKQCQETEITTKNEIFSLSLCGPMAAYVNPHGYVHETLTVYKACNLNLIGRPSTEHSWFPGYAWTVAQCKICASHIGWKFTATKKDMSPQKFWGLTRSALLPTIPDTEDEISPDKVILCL
Chain of GSPT1 (Q16531 whole entry partner): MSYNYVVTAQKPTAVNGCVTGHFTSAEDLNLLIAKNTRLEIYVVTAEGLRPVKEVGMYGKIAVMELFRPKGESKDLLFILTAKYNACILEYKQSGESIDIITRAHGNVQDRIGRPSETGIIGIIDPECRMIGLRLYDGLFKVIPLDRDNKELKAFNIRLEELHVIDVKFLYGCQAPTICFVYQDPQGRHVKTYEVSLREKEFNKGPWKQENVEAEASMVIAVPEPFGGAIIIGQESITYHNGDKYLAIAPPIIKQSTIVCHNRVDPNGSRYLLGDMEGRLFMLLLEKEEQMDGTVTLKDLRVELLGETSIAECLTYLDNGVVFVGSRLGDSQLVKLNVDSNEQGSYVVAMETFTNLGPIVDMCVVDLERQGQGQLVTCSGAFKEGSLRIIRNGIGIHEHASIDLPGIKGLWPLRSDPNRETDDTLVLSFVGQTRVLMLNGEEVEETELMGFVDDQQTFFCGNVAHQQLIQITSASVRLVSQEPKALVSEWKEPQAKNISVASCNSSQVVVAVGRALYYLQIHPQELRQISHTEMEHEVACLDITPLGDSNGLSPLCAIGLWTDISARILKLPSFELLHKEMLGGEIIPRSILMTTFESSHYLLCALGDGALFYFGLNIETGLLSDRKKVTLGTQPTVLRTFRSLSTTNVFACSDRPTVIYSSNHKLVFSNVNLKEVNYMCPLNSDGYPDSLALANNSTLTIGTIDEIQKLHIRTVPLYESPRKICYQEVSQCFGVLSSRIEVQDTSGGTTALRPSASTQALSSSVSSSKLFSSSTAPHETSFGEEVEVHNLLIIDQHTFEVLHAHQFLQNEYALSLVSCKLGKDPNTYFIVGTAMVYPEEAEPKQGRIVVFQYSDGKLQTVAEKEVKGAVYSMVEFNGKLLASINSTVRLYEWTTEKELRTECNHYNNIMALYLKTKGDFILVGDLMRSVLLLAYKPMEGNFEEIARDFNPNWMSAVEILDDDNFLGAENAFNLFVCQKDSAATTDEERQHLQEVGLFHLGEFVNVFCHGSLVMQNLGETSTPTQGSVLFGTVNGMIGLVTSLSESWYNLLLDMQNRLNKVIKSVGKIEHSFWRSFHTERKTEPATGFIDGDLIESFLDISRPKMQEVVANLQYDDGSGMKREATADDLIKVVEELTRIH
T1 sequence (Q9NWZ3 whole entry): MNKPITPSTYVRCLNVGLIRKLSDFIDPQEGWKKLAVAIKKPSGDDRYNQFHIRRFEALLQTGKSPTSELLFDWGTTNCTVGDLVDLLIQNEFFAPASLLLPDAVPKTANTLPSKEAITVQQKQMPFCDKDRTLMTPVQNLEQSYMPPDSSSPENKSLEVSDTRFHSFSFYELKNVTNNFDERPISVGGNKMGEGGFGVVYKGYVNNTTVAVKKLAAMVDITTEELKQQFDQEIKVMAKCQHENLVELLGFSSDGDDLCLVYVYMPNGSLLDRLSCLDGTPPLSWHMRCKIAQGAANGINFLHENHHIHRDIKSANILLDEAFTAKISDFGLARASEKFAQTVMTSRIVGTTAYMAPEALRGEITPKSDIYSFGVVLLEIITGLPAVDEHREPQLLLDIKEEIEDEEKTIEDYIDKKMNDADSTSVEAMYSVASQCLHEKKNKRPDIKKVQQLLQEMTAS
Chain of Aiolos (Q9UKT9 whole entry): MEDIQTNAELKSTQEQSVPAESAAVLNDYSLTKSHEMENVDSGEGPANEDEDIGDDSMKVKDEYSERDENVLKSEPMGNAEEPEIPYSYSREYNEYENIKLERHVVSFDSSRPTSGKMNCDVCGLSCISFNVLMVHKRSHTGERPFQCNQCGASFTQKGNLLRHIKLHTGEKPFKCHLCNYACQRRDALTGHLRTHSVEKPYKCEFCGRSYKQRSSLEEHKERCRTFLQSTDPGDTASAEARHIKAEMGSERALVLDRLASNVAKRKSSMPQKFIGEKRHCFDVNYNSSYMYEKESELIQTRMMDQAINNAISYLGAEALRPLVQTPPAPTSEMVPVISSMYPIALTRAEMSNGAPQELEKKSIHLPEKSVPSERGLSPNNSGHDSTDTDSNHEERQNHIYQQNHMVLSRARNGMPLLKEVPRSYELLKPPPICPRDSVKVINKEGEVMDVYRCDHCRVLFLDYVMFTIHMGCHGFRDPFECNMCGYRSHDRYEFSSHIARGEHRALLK
Chain of Aiolos (Q96SW2 whole entry): as the sequence (Q96SW2 whole entry) above
Chain of Aiolos (Q16531 whole entry partner): as the sequence (Q16531 whole entry partner) above

## NC(=O)c1nn(-c2ccc(C(=O)NCCOCCOCCNc3cccc4c3C(=O)N(C3CCC(=O)NC3=O)C4=O)cc2)cc1NC(=O)c1coc(-c2ccnc(NCC(F)(F)F)c2)n1 (stereo not drawn) [Comparative Compound a2, reference compound]
IRAK4 [1]
  DC50: 1 nM
  Dmax: 54%
IRAK4 [2]; [3]
  Dmax: 88%
IRAK4 [2]; [4]
  DC50: 26 nM
Aiolos
  DC50: 20 nM
  Aiolos (CRBN neosubstrate) degradation, in words: induced neosubstrate degradation; also recorded: degraded both Ikaros and Aiolos
GSPT1
  DC50: > 10000 nM

## Cc1ncsc1-c1ccc(CNC(=O)[C@@H]2C[C@@H](O)CN2C(=O)[C@@H](NC(=O)C2(F)CC2)C(C)(C)C)c(OCCOCCC(=O)N2CCN(c3nnc(-c4cnc(-c5ccc6cc(C#N)cnn56)cc4NC(C)C)s3)CC2)c1 [Example 47, (2S,4R)—N-(2-(2-(3-(4-(5-(6-(3-cyanopyrrolo[1,2-b]pyridazin-7-yl)-4-(isopropylamino)pyridin-3-yl)-1,3,4-thiadiazol-2-yl)piperazin-1-yl)-3-oxopropoxy)ethoxy)-4-(4-methylthiazol-5-yl)benzyl)-1-((S)-2-(1-fluorocyclopropane-1-carboxamido)-3,3-dimethylbutanoyl)-4-hydroxypyrrolidine-2-carboxamide]
IRAK4 [1]
  DC50: 89 nM
  Dmax: 99%
IRAK4 [2]; [5]
  Dmax: 118%
IRAK4 [2]; [6]
  Dmax: 118%
IRAK4 [2]; [3]
  Dmax: 118%
IRAK4 [2]; [7]
  DC50: 144 nM
IRAK4 [2]; [8]
  DC50: 144 nM
IRAK4 [2]; [4]
  DC50: 144 nM
Aiolos
  DC50: > 5000 nM
  Aiolos (CRBN neosubstrate) degradation, in words: none of Compounds 13, 24, 47, and 35 displayed neosubstrate degradation
GSPT1
  DC50: > 10000 nM

## CC[C@@H]1[C@H](F)C(=O)N[C@@H]1COc1ncc(C#CCN2CCC3(CC2)CCN(c2ncc(C(=O)N[C@H](C(=O)N4C[C@H](O)C[C@H]4C(=O)NCc4ccc(-c5scnc5C)cc4)C(C)(C)C)cn2)CC3)c2cc(C(N)=O)c(OC)cc12 [Comparative b1, reference compound]
IRAK4 [1]
  DC50: 70 nM
  Dmax: 86%
IRAK4 [2]; [3]
  Dmax: 95%
IRAK4 [2]; [4]
  DC50: 204 nM
Aiolos
  DC50: > 5000 nM
GSPT1
  DC50: > 10000 nM

## CC(C)Nc1cc(-c2ccc3cc(C#N)cnn23)ncc1-c1nnc(N2CCN(C(=O)C3CCN(CC4CCN(c5ccc(-c6nn(C7CCC(=O)NC7=O)c(=O)n6C)cc5)CC4)CC3)CC2)s1 (stereo not drawn) [Example 24, 7-(5-(5-(4-(1-((1-(4-(1-(2,6-dioxopiperidin-3-yl)-4-methyl-5-oxo-4,5-dihydro-1H-1,2,4-triazol-3-yl)phenyl)piperidin-4-yl)methyl)piperidine-4-carbonyl)piperazin-1-yl)-1,3,4-thiadiazol-2-yl)-4-(isopropylamino)pyridin-2-yl)pyrrolo[1,2-b]pyridazine-3-carbonitrile]
IRAK4 [1]
  DC50: 200 nM
  Dmax: 90%
IRAK4 [2]; [5]
  Dmax: 102%
IRAK4 [2]; [6]
  Dmax: 112%
IRAK4 [2]; [3]
  Dmax: 102%
IRAK4 [2]; [7]
  DC50: 327 nM
IRAK4 [2]; [8]
  DC50: 310 nM
IRAK4 [2]; [4]
  DC50: 327 nM
Aiolos
  DC50: > 5000 nM
  Aiolos (CRBN neosubstrate) degradation, in words: none of Compounds 13, 24, 47, and 35 displayed neosubstrate degradation
GSPT1
  DC50: > 10000 nM

## CC(C)Nc1cc(-c2ccc3cc(C#N)cnn23)ncc1-c1nnc(N2CCN(C(=O)C3CCN(Cc4ccc5c(c4)C(=O)N(C4CCC(=O)NC4=O)C5=O)CC3)CC2)s1 (stereo not drawn) [Example 13, 7-(5-(5-(4-(1-((2-(2,6-dioxopiperidin-3-yl)-1,3-dioxoisoindolin-5-yl)methyl)piperidine-4-carbonyl)piperazin-1-yl)-1,3,4-thiadiazol-2-yl)-4-(isopropylamino)pyridin-2-yl)pyrrolo[1,2-b]pyridazine-3-carbonitrile]
IRAK4 [1]
  DC50: 14 nM
  Dmax: 87%
IRAK4 [2]; [5]
  Dmax: 101%
IRAK4 [2]; [6]
  Dmax: 100%
IRAK4 [2]; [3]
  Dmax: 101%
IRAK4 [2]; [7]
  DC50: 25.6 nM
IRAK4 [2]; [8]
  DC50: 27 nM
IRAK4 [2]; [4]
  DC50: 26 nM
Aiolos
  DC50: > 5000 nM
  Aiolos (CRBN neosubstrate) degradation, in words: none of Compounds 13, 24, 47, and 35 displayed neosubstrate degradation
GSPT1
  DC50: > 10000 nM

## Cc1ncsc1-c1ccc(CNC(=O)[C@@H]2C[C@@H](O)CN2C(=O)[C@@H](NC(=O)CCCC(=O)N2CCN(c3nnc(-c4cnc(-c5ccc6cc(C#N)cnn56)cc4NC(C)C)s3)CC2)C(C)(C)C)cc1 [Example 35, (2S,4R)-1-((S)-2-(5-(4-(5-(6-(3-cyanopyrrolo[1,2-b]pyridazin-7-yl)-4-(isopropylamino)pyridin-3-yl)-1,3,4-thiadiazol-2-yl)piperazin-1-yl)-5-oxopentanamido)-3,3-dimethylbutanoyl)-4-hydroxy-N-(4-(4-methylthiazol-5-yl)benzyl)pyrrolidine-2-carboxamide]
IRAK4 [1]
  DC50: 200 nM
  Dmax: 86%
IRAK4 [2]; [5]
  Dmax: 100%
IRAK4 [2]; [6]
  Dmax: 100%
IRAK4 [2]; [3]
  Dmax: 100%
IRAK4 [2]; [7]
  DC50: 590 nM
IRAK4 [2]; [8]
  DC50: 235 nM
IRAK4 [2]; [4]
  DC50: 590 nM
Aiolos
  DC50: > 5000 nM
  Aiolos (CRBN neosubstrate) degradation, in words: none of Compounds 13, 24, 47, and 35 displayed neosubstrate degradation
GSPT1
  DC50: > 10000 nM
